Test results reported in PubChem BioAssay AID330 (DTP/NCI, 2004).
Where “and” joins values, the source holds several entries; their conditions need not be identical. Identical values can stand only once. Toxic doses and inconclusive results are not listed. How the source made its calls: active means survival T/C of 150% or more; inactive means T/C below 125% in these data.

Tested on: P388 leukemia ip, CD2F1 mice, survival T/C
Experiment: NCI In Vivo Anticancer Drug Screen. Data for tumor model P388 Leukemia (intraperitoneal) in CD2F1 (CDF1) mice
Details: endpoint: median survival time, higher = longer survival
Procedure, shortened: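 Mice carrying the transplanted tumor received test compound or vehicle. Survival was recorded in each group, and the value is the treated-group measurement divided by that of the vehicle-treated control group.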

[1] = dose: 12.5 mg/kg/injection, schedule: Q01DX009 (ip), vehicle: water
[2] = dose: 25.0 mg/kg/injection, schedule: Q01DX009 (ip), vehicle: water
[3] = dose: 50.0 mg/kg/injection, schedule: Q01DX009 (ip), vehicle: water
[4] = dose: 100.0 mg/kg/injection, schedule: Q01DX009 (ip), vehicle: water
[5] = dose: 50.0 mg/kg/injection, schedule: Q01DX005 (ip), vehicle: saline with Tween-80
[6] = dose: 100.0 mg/kg/injection, schedule: Q01DX005 (ip), vehicle: saline with Tween-80
[7] = dose: 200.0 mg/kg/injection, schedule: Q01DX005 (ip), vehicle: saline with Tween-80
[8] = dose: 100.0 mg/kg/injection, schedule: Q01DX009 (ip), vehicle: saline with Tween-80
[9] = dose: 200.0 mg/kg/injection, schedule: Q01DX009 (ip), vehicle: saline with Tween-80
[10] = dose: 50.0 mg/kg/injection, schedule: Q01DX005 (ip), vehicle: Klucel (hydroxypropylcellulose) (HPC)
[11] = dose: 100.0 mg/kg/injection, schedule: Q01DX005 (ip), vehicle: Klucel (hydroxypropylcellulose) (HPC)

Measured: T/C

CCOC(=O)/C=C/C(=O)NN
inactive: [1] 89 % of control | [2] 100 % of control | [3] 99 % of control and 102 % of control and 93 % of control | [4] 107 % of control and 109 % of control and 97 % of control | dose: 200.0 mg/kg/injection, schedule: Q01DX009 (ip), vehicle: water 104 % of control and 109 % of control

CCC(=O)OC1CCC2C3CCC(=O)OC3C(C)(CCC(=O)O)CC12C (stereo not given)
inactive: [5] 93 % of control | [6] 99 % of control | [7] 90 % of control

Cc1ccc(CN(S(=O)(=O)c2ccc(C)cc2)S(=O)(=O)c2ccc(C)cc2)cc1
inactive: [8] 88 % of control | [9] 113 % of control

C[Si](C)(C)SCCS[Si](C)(C)C
inactive: [5] 98 % of control | [6] 98 % of control | [7] 95 % of control

CCN(CC)CCCC(C)NS(=O)(=O)c1cccc2c(N(C)C)cccc12 (stereo not given)
inactive: dose: 6.25 mg/kg/injection, schedule: Q01DX009 (ip), vehicle: water 96 % of control | [1] 97 % of control | [2] 93 % of control | [3] 96 % of control | [4] 99 % of control

O=C(CCCl)OCCCl
inactive: dose: 50.0 mg/kg/injection, schedule: Q01DX009 (ip), vehicle: saline sonified 95 % of control | dose: 100.0 mg/kg/injection, schedule: Q01DX009 (ip), vehicle: saline sonified 100 % of control | dose: 200.0 mg/kg/injection, schedule: Q01DX009 (ip), vehicle: saline sonified 90 % of control

CN(C)CCCNc1c2c(nc3ccc(Cl)cc13)CCCC2
inactive: [5] 104 % of control | [6] 106 % of control

CN(C)CCCN(c1ccccc1)c1ccccc1
inactive: [10] 98 % of control | [11] 98 % of control | dose: 200.0 mg/kg/injection, schedule: Q01DX005 (ip), vehicle: Klucel (hydroxypropylcellulose) (HPC) 98 % of control

O=C(NC(=O)c1c(F)cccc1F)Nc1cc(Cl)c(F)c(Cl)c1F
inactive: dose: 15.0 mg/kg/injection, schedule: Q01DX005 (ip), vehicle: Klucel (hydroxypropylcellulose) (HPC) 98 % of control | dose: 30.0 mg/kg/injection, schedule: Q01DX005 (ip), vehicle: Klucel (hydroxypropylcellulose) (HPC) 90 % of control and 93 % of control | dose: 60.0 mg/kg/injection, schedule: Q01DX005 (ip), vehicle: Klucel (hydroxypropylcellulose) (HPC) 87 % of control and 94 % of control | dose: 120.0 mg/kg/injection, schedule: Q01DX005 (ip), vehicle: Klucel (hydroxypropylcellulose) (HPC) 93 % of control | dose: 240.0 mg/kg/injection, schedule: Q01DX005 (ip), vehicle: Klucel (hydroxypropylcellulose) (HPC) 88 % of control

COC(C(=O)N/C(N)=N/O)c1c(Cl)cccc1Cl (stereo not given)
inactive: [10] 98 % of control | [11] 109 % of control

COC1=C(OC)C(=O)C(N(C)C)=C(CO)C1=O
inactive: dose: 30.0 mg/kg/injection, schedule: Q01DX005 (ip), vehicle: saline 105 % of control | dose: 60.0 mg/kg/injection, schedule: Q01DX005 (ip), vehicle: saline 103 % of control and 108 % of control | dose: 120.0 mg/kg/injection, schedule: Q01DX005 (ip), vehicle: saline 117 % of control and 120 % of control

CCOC(=O)C(=CNC(C)(C)C)C(=O)OCC
inactive: dose: 50.0 mg/kg/injection, schedule: Q01DX009 (ip), vehicle: saline with Tween-80 106 % of control | [8] 115 % of control | [9] 100 % of control

COC1=CC(=N/Br)/C=CC/1=N/Br
inactive: dose: 50.0 mg/kg/injection, schedule: Q01DX005 (ip), vehicle: saline 98 % of control and 103 % of control | dose: 100.0 mg/kg/injection, schedule: Q01DX005 (ip), vehicle: saline 99 % of control and 100 % of control and 105 % of control | dose: 200.0 mg/kg/injection, schedule: Q01DX005 (ip), vehicle: saline 99 % of control and 107 % of control and 120 % of control

CC1(C)Oc2c(C=O)c(O)cc3c2C2CC1CCC2(C)O3 (stereo not given)
inactive: dose: 9.0 mg/kg/injection, schedule: Q01DX009 (ip), vehicle: saline with Tween-80 102 % of control | dose: 18.0 mg/kg/injection, schedule: Q01DX009 (ip), vehicle: saline with Tween-80 96 % of control | dose: 36.0 mg/kg/injection, schedule: Q01DX009 (ip), vehicle: saline with Tween-80 102 % of control
